Where two headings read alike, the source gives them in different places.
Tested on: SD male rats bred under water immersion
Details: swim with burden of ca. 8% of body weight, n=4, FIG. 1

| SMILES | swimming time (time until the tip of nose was submerged in water for 10 seconds or more) (reduced glutathione 800 mg/kg body weight orally once a day for 5 days of water immersion breeding) | swimming time (time until the tip of nose was submerged in water for 10 seconds or more) (ornithine 1000 mg/kg body weight orally once a day for 5 days of water immersion breeding) |
| --- | --- | --- |
| N[C@@H](CCC(=O)N[C@@H](CS)C(=O)NCC(=O)O)C(=O)O [glutathione, reduced glutathione] | no change was recognized | – |
| Cl.NCCC[C@H](N)C(=O)O [ornithine, L-ornithine hydrochloride] | – | recovery of the swimming time was recognized |
